Experimental data published in article PMC12135066, “Design and Preclinical Evaluation of Novel uPAR-Targeting Radiopeptides Modified with an Albumin-Binding Entity” (Molecular Pharmaceutics, 2025).

Tests used:
human uPAR = target: T1, human uPAR (Homo sapiens, UniProt Q03405); test: uPAR-binding affinity (KD values), saturation experiments with HEK-uPAR cells; settings: saturation binding on HEK-uPAR cells, on ice (4 °C) 1 h, 1–1600 nM radiopeptide, ± AE105 40 µM; γ-counter; nonlinear regression; average ± SD, n=3
T1 construct: host or cells: HEK cells (HEK-uPAR)
Experimental: To determine the uPAR-binding affinity of the radiopeptides, saturation experiments were performed using HEK-uPAR cells in 48-well plates (Supporting Information). The cells were incubated on ice for 1 h in the presence or absence of excess AE105 (final concentration of 40 μM) together with the respective radiopeptide at a concentration range of 1–1600 nM. After rinsing the cells with PBS, they were lysed with an aqueous NaOH solution (1 M, 600 μL), transferred to radioimmunoassay tubes, and measured in a γ-counter (1480 Wizard, PerkinElmer). The K D values were determined by plotting the specific binding (values of samples incubated without AE105 minus the values of samples incubated with AE105) against the molar concentration of the added peptide. A nonlinear regression analysis was performed using GraphPad Prism software (version 8.3.1). The results were expressed as average ± SD of n = 3 independently performed experiments. […]
7. Determination of uPAR-Binding Affinity (KD Values)
Purpose: The uPAR-binding affinity of the radiopeptides were determined to investigate the impact of structural changes on the receptor binding.
Methods: HEK-uPAR cells were seeded in poly-D-lysine-coated 48-well plates (0.25 × 10 6 in 0.5 mL per well) using DMEM cell culture medium with supplements. The cells were incubated at 37 °C and 5% CO2 overnight to allow adhesion and growth. After removing the supernatant, the well plates with HEK-uPAR cells were placed on ice to prevent internalization of the radiopeptides. The cells were rinsed with cold PBS (0.5 mL, pH 7.4) followed by the addition of DMEM cell culture medium without supplements (450 µL/well) in the presence or absence of AE105 ( final concentration 40 µM) as a receptor-blocking agent. The radiopeptides (5 MBq/nmol) were diluted in PBS to obtain peptide concentrations ranging from 10 ‒16000 nM. From each dilution, 50 µL were added to each well to obtain final peptide concentrations of 1 nM to 1600 nM. The cells were incubated at 4 °C for 1 h before rinsing twice with PBS (0.5 mL, pH 7.4). The cells were lysed using an aqueous NaOH solution (1 M, 600 µL) and the lysates were transferred to RIA tubes for counting the activity in a γ-counter (1480 Wizard, PerkinElmer) . The KD values were determined by plotting specific binding (total binding minus unspecific binding) against the molar concentration of the added radiopeptide using GraphPad Prism (version 8.3.1). the results were then expressed as average K D values ± SD of n = 3 independent […]
Results: The results are reported in the main article.

[1] = Stability of the radiopeptides in human blood plasma; settings: human
[2] = n-Octanol/PBS distribution coefficients (logD values); settings: n-octanol/PBS pH 7.4, pH 7.4
[3] = Biodistribution studies in HEK-uPAR xenograft-bearing nude mice; settings: female, CD1/nude, mouse, 5 MBq (0.5 nmol), total radioactivity, 5 MBq, 0.5 nmol, decay-corrected, average ± SD, n=3 animals; for tissue uptake at 4 h: 4 h p.i.; for tissue uptake at 24 h: 24 h p.i.
Experimental: (§1) All applicable international, national, and/or institutional guidelines for the care and use of laboratory animals were followed, and the herein reported experiments were carried out according to the guidelines of the Swiss Regulations for Animal Welfare. The preclinical studies were ethically approved by the Cantonal Committee of Animal Experimentation and permitted by the responsible cantonal authorities (License No. 75721). Five-week-old female CD1/nude (Crl:CD1-Foxn ^ nu ) and female immunocompetent FVB (FVB/NCrl) mice were obtained from Charles River Laboratories (Sulzfeld, Germany). All mice were acclimatized for at least 7 days, receiving standard rodent chow ad libitum before being included in the reported studies. The CD1/nude mice were subcutaneously inoculated with HEK-uPAR cells (7 × 10^6 cells in 100 μL PBS) on the right shoulder. […] Typically, it took 3–11 weeks to reach xenograft volumes of 40–600 mm^3 at the time of testing the tissue distribution of the radiopeptides. The immunocompetent FVB mice were used for testing the in vivo stability of the radiopeptides.
(§2) The mice were injected with the radiopeptides (5 MBq, 0.5 nmol, 100 μL) in saline containing 0.05% BSA and sacrificed at 4 and 24 h after injection of the radiopeptides. Selected tissues and organs were collected, weighed, and measured with the γ-counter (1480 Wizard, PerkinElmer). […] A p-value of <0.05 was considered a statistically significant difference (GraphPad Prism software, version 8.3.1).
(§3) Decay-corrected data is shown as average ± SD of n = 3 animals of % injected activity per gram (IA/g) tissue.

[4] = tested on: HEK-uPAR xenograft-bearing nude mice; test: as above; settings: average ± SD, n=3 animals
Experimental: as §1, §2, §3

[5] = Radiolytic stability of the radiopeptides in saline with L-ascorbic acid; settings: 50 MBq/nmol in saline, 150 MBq/300 µL, L-ascorbic acid (3 mg, 20 µL) and NaOAc (0.5 M, 30 µL), HPLC, product peak relative to t=0 (100%), average ± SD, n=3
Experimental: The radiolytic stability of the radiopeptides (50 MBq/nmol) in saline (150 MBq/300 μL) was assessed in the absence and presence of L-ascorbic acid (3 mg added in a volume of 20 μL). After an incubation period of 1, 4, and 24 h, aliquots of the solutions were analyzed using HPLC. The integrated peak area representing the intact radiopeptide was expressed as the percentage of the sum of all peaks of the chromatogram. The final amount of intact radiopeptide was expressed as the percentage of the product peak obtained at t = 0, which was set as 100% (Supporting Information).
The radiolytic stability of [177Lu]Lu-DOTA-AE105 and the new 177Lu-labeled uPAR-targeting
radiopeptides (50 MBq/nmol) was assessed in vitro in the formulated solution . The radiopeptide s were
diluted in saline to obtain an activity concentration of 150 MBq in 300 µL in the presence of L-ascorbic
acid (3 mg, 20 µL) and NaOAc (0.5 M, 30 µL) to compensate for the acidic pH. Aliquots of the dilutions
were analyzed using HPLC after incubation periods of 1 h, 4 h and 24 h . The integrated peak area
measured for the intact radioligand peak was expressed as the percentage of the sum of the integrated
peak areas of each peak present in the chromatogram. The final amount of intact radiopeptide at t = 1 h,
4 h and 24 h was expressed by correcting the obtained percentage of the product peak to this peak
obtained at t = 0, which was set as 100%.

[6] = tested on: mouse serum albumin (MSA); test: Albumin-binding properties in mouse blood plasma (ultrafiltration assay); settings: ultrafiltration (Amicon, 10 kDa), mouse blood plasma dilutions in PBS pH 7.4, [MSA]-to-[radiopeptide] 0.01–12500, 0.006 nmol, 37 °C 30 min, γ-counter; inverse ratio of B50, [177Lu]Lu-uPAR-01 set as 1.00; average curve of 3 experiments
Experimental: (§4) The relative albumin-binding affinities of the radiopeptides in mouse and human blood plasma were determined using an ultrafiltration assay with Amicon centrifugal filters (cutoff of 10 kDa; Merck Millipore), as previously reported (Supporting Information). A fixed amount of the respective radiopeptide (15 μL, ∼300 kBq, 0.006 nmol) was added to a defined volume (150 μL) of mouse and human blood plasma dilutions to obtain [mouse serum albumin (MSA)]-to-[radiopeptide] and [human serum albumin (HSA)]-to-[radiopeptide] molar concentration ratios of 0.01–12,500 and 0.01–20,000, respectively. The data were analyzed using a semilogarithmic Hill plot with the maximum binding set as 100% (GraphPad Prism software, version 8.3.1).
(§5) Determination of the Albumin-Binding Properties
(§6) Purpose: The radiopeptides were investigated with regard to their albumin-binding capabilities in vitro
(§7) as a measure to predict blood retention in vivo.
(§8) Methods: The relative albumin-binding affinity of the radiopeptides in mouse blood plasma (Rockland
(§9) Immunochemicals, Inc., U.S.A.) and human blood plasma (Stiftung Blutspende SRK Aargau-
(§10) Solothurn, Switzerland) were determined using an ultrafiltration method. The amount of mouse serum
(§11) albumin (MSA) and human serum albumin (HSA) in mouse and human blood plasma was defined as
(§12) 550 μM and 800 μM, respectively, based on measurements using a dry chemistry analyzer (DRI-CHEM
(§13) 4000i, FUJIFILM, Japan). A fixed amount of radiopeptide (50 MBq/nmol, ~300 kBq, 15 μL, 0.006
(§14) nmol) was added to a defined volume (150 μL) of mouse and human blood plasma and various dilutions
(§15) thereof in PBS pH 7.4, resulting in defined [MSA]-to-[radiopeptide] or [HSA]-to-[radiopeptide] molar
(§16) concentration ratios ranging from 0.01 ‒12500 and 0.01‒20000, respectively, followed by incubation of
(§17) the samples at 37 °C for 30 min. Ice-cold PBS (150 µL, pH 7.4) was added before loading the blood
(§18) plasma samples on Amicon centrifugal filters (cut -off of 10 kDa; Merck Millipore) followed by
(§19) centrifugation (14000 rcf, 30 min, 4 °C) to allow the separation of the plasma protein -bound from the
(§20) plasma-unbound (free) fractions of each sample. The inserts of the filter devices were inverted and centrifuged at 200 rcf for 3 min to recover the protein -bound radiopeptide. The activity in the filtrate
(§21) and filter unit was measured in a γ-counter (1480 Wizard, PerkinElmer) and the counts were combined
(§22) assuming that the fraction retained in the filter membrane was not bound to proteins. The protein -bound
(§23) fraction was expressed as percentage of the whole activity (i.e. plasma protein -bound activity, activity
(§24) measured in the filtrate and activity measured in the filter (set as 100%) ). The data were analyzed using
(§25) a semi-logarithmic plot assuming a maximum binding of 100%. The Hill equation was fitted to the data
(§26) points and the half -maximum binding ( B50) based on the average curve obtained from three independent
(§27) experiments (GraphPad Prism software, version 8.3 .1). The relative albumin-binding affinit ies of the
(§28) reference compound, whose relative binding affinity was set as 1.0. The results were presented as the
(§29) B50 value obtained from the average curve from 3 independent experiments.

[7] = tested on: human serum albumin (HSA); test: Albumin-binding properties in human blood plasma (ultrafiltration assay); settings: ultrafiltration (Amicon, 10 kDa), human blood plasma dilutions in PBS pH 7.4, [HSA]-to-[radiopeptide] 0.01–20000, 0.006 nmol, 37 °C 30 min, γ-counter; inverse ratio of B50, [177Lu]Lu-uPAR-01 set as 1.00; average curve of 3 experiments
Experimental: as §4, §5, §6, §7, §8, §9, §10, §11, §12, §13, §14, §15, §16, §17, §18, §19, §20, §21, §22, §23, §24, §25, §26, §27, §28, §29

[8] = HEK-uPAR xenograft, HEK-uPAR xgft

T1 sequence (Q03405 23-335): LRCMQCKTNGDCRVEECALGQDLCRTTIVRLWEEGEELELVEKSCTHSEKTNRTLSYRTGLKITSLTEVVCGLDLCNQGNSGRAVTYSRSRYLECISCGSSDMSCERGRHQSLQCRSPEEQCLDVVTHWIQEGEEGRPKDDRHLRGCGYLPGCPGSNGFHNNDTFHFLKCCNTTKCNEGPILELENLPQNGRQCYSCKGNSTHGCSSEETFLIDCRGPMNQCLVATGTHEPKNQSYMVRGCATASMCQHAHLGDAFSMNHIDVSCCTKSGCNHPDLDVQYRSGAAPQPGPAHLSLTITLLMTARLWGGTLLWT

CC(C)C[C@H](NC(=O)[C@H](Cc1ccc(O)cc1)NC(=O)[C@@H](CCCNC(=N)N)NC(=O)[C@@H](CO)NC(=O)[C@H](Cc1ccccc1)NC(=O)[C@H](CC1CCCCC1)NC(=O)[C@H](CC(=O)O)NC(=O)[C@H](CCCCNC(=O)CCCc1ccc(I)cc1)NC(=O)CN1CCN(CC(=O)O)CCN(CC(=O)O)CCN(CC(=O)O)CC1)C(=O)N[C@@H](Cc1c[nH]c2ccccc12)C(=O)N[C@@H](CO)C(N)=O [[^177Lu]Lu-uPAR-01, metal not drawn]
Kd (human uPAR): 48 ± 6 nM | remaining at 1 h, 10 MBq/200 µL ([1]; blood plasma): 100% | remaining at 24 h, 10 MBq/200 µL ([1]; blood plasma): 99 ± 1% | remaining at 4 h, 10 MBq/200 µL ([1]; human blood plasma): 99 ± 2% | logD [2]: 0.78 ± 0.05 | tissue uptake at 4 h [3, 8]: 9.2 ± 0.2 %ID/g | tissue uptake at 24 h [3, 8]: 5.8 ± 0.6 %ID/g | tissue uptake at 4 h ([3]; blood): 16 ± 1 %ID/g | tissue uptake at 24 h ([3]; blood): 4.5 ± 0.2 %ID/g | tissue uptake at 4 h ([3]; bone): 1.9 ± 0.1 %ID/g | tissue uptake at 24 h ([3]; bone): 0.81 ± 0.01 %ID/g | tissue uptake at 4 h ([3]; brain): 0.32 ± 0.02 %ID/g | tissue uptake at 24 h ([3]; brain): 0.1 ± 0.01 %ID/g | tissue uptake at 4 h ([3]; heart): 5.7 ± 0.2 %ID/g | tissue uptake at 24 h ([3]; heart): 1.9 ± 0.1 %ID/g | tissue uptake at 4 h ([3]; intestines): 2.3 ± 0.3 %ID/g | tissue uptake at 24 h ([3]; intestines): 0.94 ± 0.04 %ID/g | tissue uptake at 4 h ([3]; kidneys): 5.6 ± 0.2 %ID/g | tissue uptake at 24 h ([3]; kidneys): 4.2 ± 0.8 %ID/g | tissue uptake at 4 h ([3]; liver): 6.4 ± 0.3 %ID/g | tissue uptake at 24 h ([3]; liver): 1.8 ± 0.2 %ID/g | tissue uptake at 4 h ([3]; lung): 9.4 ± 1 %ID/g | tissue uptake at 24 h ([3]; lung): 3.3 ± 0.3 %ID/g | tissue uptake at 4 h ([3]; muscle): 1.4 ± 0.2 %ID/g | tissue uptake at 24 h ([3]; muscle): 0.57 ± 0.07 %ID/g | tissue uptake at 4 h ([3]; pancreas): 2 ± 0.3 %ID/g | tissue uptake at 24 h ([3]; pancreas): 0.77 ± 0.04 %ID/g | tissue uptake at 4 h ([3]; salivary glands): 3.6 ± 0.3 %ID/g | tissue uptake at 24 h ([3]; salivary glands): 1.5 ± 0.1 %ID/g | tissue uptake at 4 h ([3]; spleen): 2.7 ± 0.1 %ID/g | tissue uptake at 24 h ([3]; spleen): 1.7 ± 0.2 %ID/g | tissue uptake at 4 h ([3]; stomach): 2 ± 0.1 %ID/g | tissue uptake at 24 h ([3]; stomach): 0.78 ± 0.08 %ID/g | Xenograft-to-blood ratio ([4]; 4 h p.i.): 0.57 ± 0.01 | Xenograft-to-kidney ratio ([4]; 4 h p.i.): 1.6 ± 0.1 | Xenograft-to-liver ratio ([4]; 4 h p.i.): 1.4 ± 0.1 | Xenograft-to-blood ratio ([4]; 24 h p.i.): 1.3 ± 0.1 | Xenograft-to-kidney ratio ([4]; 24 h p.i.): 1.4 ± 0.3 | Xenograft-to-liver ratio ([4]; 24 h p.i.): 3.3 ± 0.3 | radiolytic stability, % intact radiopeptide ([5]; 1 h): 100 ± 0% | radiolytic stability, % intact radiopeptide ([5]; 4 h): 100 ± 0% | radiolytic stability after 24 h, intact radiopeptide [%] ([5]; 24 h): 93 ± 4% | Relative albumin-binding affinity, mouse blood plasma [6]: 1.00 | Relative albumin-binding affinity, human blood plasma [7]: 1.00
